Measured values reported in patent US20240158446A1, “CYCLIC COMPOUND HAVING SELECTIVE INHIBITORY ACTION ON KRAS OVER HRAS AND NRAS” (CHUGAI SEIYAKU KABUSHIKI KAISHA, priority 2021, published 2024).

How the values were obtained:
[1] = molecular target: GDP-bound KRAS wild-type protein (Homo sapiens, UniProt P01116); assay: Binding to KRAS by surface plasmon resonance (SPR), Single Cycle Kinetics; details: SPR, Single Cycle Kinetics, 1:1 binding model; GDP-bound KRAS wild-type protein; read-out: KRAS KD
[2] = molecular target: GDP-bound NRAS wild-type protein (Homo sapiens, UniProt P01111); assay: Binding to NRAS by surface plasmon resonance (SPR), Single Cycle Kinetics; details: SPR; GDP-bound NRAS wild-type protein vs GDP-bound KRAS wild-type protein; KD ratio class
[3] = molecular target: GDP-bound HRAS wild-type protein (Homo sapiens, UniProt P01112); assay: Binding to HRAS by surface plasmon resonance (SPR), Single Cycle Kinetics; details: SPR; GDP-bound HRAS wild-type protein vs GDP-bound KRAS wild-type protein; KD ratio class
[4] = tested on: human lung cancer strain NCI-H441;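 also: cell proliferation inhibition after four days measured by CellTiter-Glo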

Chain of GDP-bound KRAS wild-type protein (P01116 whole entry): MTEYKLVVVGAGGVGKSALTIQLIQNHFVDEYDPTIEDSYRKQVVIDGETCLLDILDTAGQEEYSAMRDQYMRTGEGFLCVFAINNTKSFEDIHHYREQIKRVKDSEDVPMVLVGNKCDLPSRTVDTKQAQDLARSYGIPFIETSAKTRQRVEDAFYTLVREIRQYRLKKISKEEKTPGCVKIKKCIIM
Chain of GDP-bound HRAS wild-type protein (P01112 whole entry): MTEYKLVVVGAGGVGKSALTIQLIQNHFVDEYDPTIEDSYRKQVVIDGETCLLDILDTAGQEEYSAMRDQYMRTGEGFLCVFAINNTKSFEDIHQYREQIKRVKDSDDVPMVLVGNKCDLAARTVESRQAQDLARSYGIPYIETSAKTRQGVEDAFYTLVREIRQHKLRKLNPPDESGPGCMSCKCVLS
Chain of GDP-bound NRAS wild-type protein (P01111 whole entry): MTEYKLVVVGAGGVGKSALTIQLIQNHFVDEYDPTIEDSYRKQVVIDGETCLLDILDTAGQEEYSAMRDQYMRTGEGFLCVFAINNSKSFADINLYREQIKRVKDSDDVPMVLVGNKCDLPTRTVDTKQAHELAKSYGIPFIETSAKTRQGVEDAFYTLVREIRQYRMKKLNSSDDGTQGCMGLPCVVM

Row | SMILES | Kd [1] [nM] | NRAS/KRAS (ratio of KD value for NRAS to KD value for KRAS) [2] | HRAS/KRAS (ratio of KD value for HRAS to KD value for KRAS) [3] | IC50 [4] [nM]
1 | CCO[C@@H]1C[C@H]2C(=O)NC3(CCC3)C(=O)N(C)[C@@H](C3CCCC3)C(=O)N(C)[C@H](C(=O)N3CCOCC3)CC(=O)N(C)[C@@H](CC3CCCC3)C(=O)N[C@@H]([C@@H](C)CC)C(=O)N(C)CC(=O)N(C)[C@H]3C/C=C\CCN(C3=O)[C@@H](Cc3ccc(C(F)(F)F)cc3)C(=O)N(C)CC(=O)N[C@@H](CCc3cc(F)c(C(F)(F)F)c(F)c3)C(=O)N2C1 [PP1393] | 0.19 | A (a compound having 10 or more and less than 20 is denoted as A) | A (a compound having 10 or more and less than 20 is denoted as A) | 18.2
2 | CCO[C@@H]1C[C@H]2C(=O)NC3(CCC3)C(=O)N(C)[C@@H](C3CCCC3)C(=O)N(C)[C@H](C(=O)N3CCOCC3)CC(=O)N(C)[C@@H](CC3CCCC3)C(=O)N[C@@H]([C@@H](C)CC)C(=O)N(C)CC(=O)N(C)[C@H]3C/C=C\CCN(C3=O)[C@@H](Cc3ccc(C)cc3)C(=O)N(C)CC(=O)N[C@@H](CCc3cc(F)c(C(F)(F)F)c(F)c3)C(=O)N2C1 [PP1394] | 0.24 | AA (a compound having 20 or more is denoted as AA) | A (a compound having 10 or more and less than 20 is denoted as A) | 25.1
3 | CCCOC[C@H]1C(=O)N[C@@H]([C@@H](C)CC)C(=O)N(C)CC(=O)N(C)[C@H]2C/C=C\CCN(C2=O)[C@@H](Cc2ccc(C(F)(F)F)cc2)C(=O)N(C)CC(=O)N[C@@H](CCc2cc(F)c(C(F)(F)F)c(F)c2)C(=O)N2C[C@H](OCC)C[C@H]2C(=O)NC2(CCC2)C(=O)N(C)[C@@H](C2CCCC2)C(=O)N(C)[C@H](C(=O)N(C)C)CC(=O)N1C [PP1395, (2S,8S,12R,14S,20S,23S,27S,30S,36S,38Z)-20-cyclopentyl-8-[2-[3,5-difluoro-4-(trifluoromethyl)phenyl]ethyl]-12-ethoxy-N,N,4,19,22,26,32,35-octamethyl-30-[(1S)-1-methylpropyl]-3,6,9,15,18,21,25,28,31,34,42-undecaoxo-27-(propoxymethyl)-2-[[4-(trifluoromethyl)phenyl]methyl]spiro[1,4,7,10,16,19,22,26,29,32,35-undecazatricyclo[34.5.1.0^10,14]dotetracont-38-ene-17,1′-cyclobutane]-23-carboxamide] | 0.063 | A (a compound having 10 or more and less than 20 is denoted as A) | B (a compound having 3 or more and less than 10 is denoted as B) | 3.8
4 | CCCC[C@H]1C(=O)N[C@@H]([C@@H](C)CC)C(=O)N(C)CC(=O)N(C)[C@H]2C/C=C\CCN(C2=O)[C@@H](Cc2ccc(C(F)(F)F)cc2)C(=O)N(C)CC(=O)N[C@@H](CCc2cc(F)c(C(F)(F)F)c(F)c2)C(=O)N2C[C@H](OCC)C[C@H]2C(=O)NC2(CCC2)C(=O)N(C)[C@@H](C2CCCC2)C(=O)N(C)[C@H](C(=O)N2CCCC2)CC(=O)N1C [PP1396, (2S,8S,12R,14S,20S,23S,27S,30S,36S,38Z)-27-butyl-20-cyclopentyl-8-[2-[3,5-difluoro-4-(trifluoromethyl)phenyl]ethyl]-12-ethoxy-4,19,22,26,32,35-hexamethyl-30-[(1S)-1-methylpropyl]-23-(pyrrolidine-1-carbonyl)-2-[[4-(trifluoromethyl)phenyl]methyl]spiro[1,4,7,10,16,19,22,26,29,32,35-undecazatricyclo[34.5.1.0^10,14]dotetracont-38-ene-17,1′-cyclobutane]-3,6,9,15,18,21,25,28,31,34,42-undecone] | 0.14 | AA (a compound having 20 or more is denoted as AA) | A (a compound having 10 or more and less than 20 is denoted as A) | 19.4
5 | CCCC[C@H]1C(=O)N[C@@H]([C@@H](C)CC)C(=O)N(C)CC(=O)N(C)[C@H]2C/C=C\CCN(C2=O)[C@@H](Cc2ccc(C(F)(F)F)cc2)C(=O)N(C)CC(=O)N[C@@H](CCc2cc(F)c(C(F)(F)F)c(F)c2)C(=O)N2C[C@H](OCC)C[C@H]2C(=O)NC2(CCCC2)C(=O)N(C)[C@@H](C2CCCC2)C(=O)N(C)[C@H](C(=O)N(C)C)CC(=O)N1C [PP1397, (2S,8S,12R,14S,20S,23S,27S,30S,36S,38Z)-27-butyl-20-cyclopentyl-8-[2-[3,5-difluoro-4-(trifluoromethyl)phenyl]ethyl]-12-ethoxy-N,N,4,19,22,26,32,35-octamethyl-30-[(1S)-1-methylpropyl]-3,6,9,15,18,21,25,28,31,34,42-undecaoxo-2-[[4-(trifluoromethyl)phenyl]methyl]spiro[1,4,7,10,16,19,22,26,29,32,35-undecazatricyclo[34.5.1.0^10,14]dotetracont-38-ene-17,1′-cyclopentane]-23-carboxamide] | 0.073 | A (a compound having 10 or more and less than 20 is denoted as A) | A (a compound having 10 or more and less than 20 is denoted as A) | 3.7
6 | CCCOC[C@H]1C(=O)N[C@@H]([C@@H](C)CC)C(=O)N(C)CC(=O)N(C)[C@H]2C/C=C\CCN(C2=O)[C@@H](Cc2ccc(C(F)(F)F)cc2)C(=O)N(C)CC(=O)N[C@@H](CCc2cc(F)c(C(F)(F)F)c(F)c2)C(=O)N2C[C@H](OCC)C[C@H]2C(=O)NC2(CC(C)(C)C2)C(=O)N(C)[C@@H](C2CCCC2)C(=O)N(C)[C@H](C(=O)N(C)C)CC(=O)N1C [PP1398, (2S,8S,12R,14S,20S,23S,27S,30S,36S,38Z)-20-cyclopentyl-8-[2-[3,5-difluoro-4-(trifluoromethyl)phenyl]ethyl]-12-ethoxy-N,N,3′,3′,4,19,22,26,32,35-decamethyl-30-[(1S)-1-methylpropyl]-3,6,9,15,18,21,25,28,31,34,42-undecaoxo-27-(propoxymethyl)-2-[[4-(trifluoromethyl)phenyl]methyl]spiro[1,4,7,10,16,19,22,26,29,32,35-undecazatricyclo[34.5.1.0^10,14]dotetracont-38-ene-17,1′-cyclobutane]-23-carboxamide] | 0.032 | A (a compound having 10 or more and less than 20 is denoted as A) | A (a compound having 10 or more and less than 20 is denoted as A) | 2.3
7 | CCCOC[C@H]1C(=O)N[C@@H]([C@@H](C)CC)C(=O)N(C)CC(=O)N(C)[C@H]2C/C=C\CCN(C2=O)[C@@H](Cc2ccc(C(F)(F)F)cc2)C(=O)N(C)CC(=O)N[C@@H](CCc2cc(F)c(C(F)(F)F)c(F)c2)C(=O)N2C[C@H](OCC)C[C@H]2C(=O)NC2(CCCC2)C(=O)N(C)[C@@H](C2CCCC2)C(=O)N(C)[C@H](C(=O)N2CCCC2)CC(=O)N1C [PP1399] | 0.19 | A (a compound having 10 or more and less than 20 is denoted as A) | A (a compound having 10 or more and less than 20 is denoted as A) | 18.8
